Source: US20080027025A1 (The Regents of the University of California, priority 2004, published 2008)

What was measured:
N2a cells = format: cell-based, Murine
N2aPK1 cells = format: cell-based, murine
[1] = tested on: Reporter T cells containing an integrated loxP-STOP-loxP GFP expression gene; format: cell-based
cells = settings: cited from earlier work

Question: What does the source list for CCN(c1nc(N)c(C(=O)NC(=N)N)nc1Cl)C(C)C [EIPA]?
Answer: cell surface association of rPrP^C-546 (N2a cells): did not block; cellular uptake of rPrP^C-546 (N2a cells): prevented the cellular uptake; PrP^C to PrP^Sc conversion (proteinase K resistant PrP) (N2aPK1 cells): concentration-dependent inhibition

Question: What does the source list for C=C1[C@@H](C)[C@H]2[C@H](Cc3ccccc3)NC(=O)[C@]23[C@H](OC(C)=O)/C=C/[C@@](C)(O)C(=O)[C@@H](C)C/C=C/[C@H]3[C@@H]1O [cytochalasin D]?
Answer: cell surface association of rPrP^C-546 (N2a cells): did not block; cellular uptake of rPrP^C-546 (N2a cells): prevented the cellular uptake

Question: With C[C@@H]1[C@H](O)[C@@H](C)/C=C/C=C/CC/C=C/C=C/C=C/C=C/C(O[C@H]2O[C@H](C)[C@@H](O)[C@H](N)[C@@H]2O)CC2O[C@](O)(CC(O)C(O)CCC(O)CC(O)CC(O)CC(=O)O[C@H]1C)CC(O)C2C(=O)O (stereo partly shown) [nystatin] as the molecule, how does the “internalization of rPrP^C-Alexa546” value (N2a cells) read?
Answer: prevented

Question: Which “uptake of rPrP^C(23-90)-Cre into cells and subsequent DNA recombination (GFP-positive cells)” value [1] does the source give for chondroitin sulfate B here?
Answer: inhibited protein uptake into cells and subsequent DNA recombination in a dose-dependent manner

Question: What does the source list for heparin?
Answer: surface binding of rPrP^C-Alexa546 (N2a cells): prevented; uptake of rPrP^C(23-90)-Cre into cells and subsequent DNA recombination (GFP-positive cells) [1]: inhibited protein uptake into cells and subsequent DNA recombination in a dose-dependent manner; PrP^C infection of cells (cells): can prevent
